| Compound | melting point [°C] |
| --- | --- |
| CC1(C(Cl)(Cl)Cl)C=CC(=O)C=C1 | 103 |
| CN1CC=C(c2c[nH]c3ccc(-c4cnc5[nH]cc(C(=O)C(C)(C)C)c5n4)cc23)CC1 | 263 to 265 |
| Cc1cc(OC(C)c2ccc(-c3ccccc3-c3nnn(C(c4ccccc4)(c4ccccc4)c4ccccc4)n3)cc2)c2ccccc2n1 (stereo not given) | 160 to 161 |
| CN(c1ccc(F)c2cc(-c3nccs3)[nH]c12)S(=O)(=O)c1cccs1 | 197 to 198 |
| NC(=O)c1cn(CCBr)nc1[N+](=O)[O-] | 135 to 137 |
| Clc1cc2c(-c3ccccc3)coc2c2ccccc12 | 66 to 69 |
| CSC1=Nc2ccccc2C(=O)N(C)C1c1ccccc1 (stereo not given) | 130 to 132 |
| COc1cc(OCC(=O)O)c(C)cc1SCc1ccc(OCc2ccc(C(F)(F)F)cc2)cc1 | 145 |
| NS(=O)(=O)c1ccc(-n2nc(C(F)(F)F)cc2-c2ccc(OS(=O)(=O)C(F)(F)F)c(Cl)c2)cn1 | 118 to 120 |
| Clc1ccc(N=c2ccn3ccccc3c2)cc1 | 183 to 184 |
| Cc1ccc(S(=O)(=O)ON=C(c2cccc([N+](=O)[O-])c2)n2nc(C)cc2N)cc1 | 156 to 158 |
| COc1nc(NCCc2ccccc2)c2cc(C)sc2n1 | 138 |
| CC(C)(CCc1cc2cc(Cl)ccc2n1S(=O)(=O)c1ccc2ncsc2c1)C(=O)O | 151 |
| Cc1ccncc1Cn1nnnc1-c1cc(Cl)ccc1Cl | 169 to 171 |
| CCCCCCCCCCCCc1ccccc1C(CC(=O)O)SCCC(=O)O (stereo not given) | 55 to 56 |
| Fc1ccc(C(c2ccc(F)c(F)c2)c2ccc(F)c(F)c2)cc1F | 95 to 96 |
| O=c1ccn(-c2cccc(C(F)(F)F)c2)nc1-c1ccnn1-c1ccc(F)cc1 | 130 to 131 |
| Cc1cc(-c2nnc3c4ccccc4c(OCc4ccc5ccccc5n4)nn23)no1 | 223 to 225 |
| CC(C)(C)[Si](Oc1ccc2[nH]c(=O)oc(=O)c2c1)(c1ccccc1)c1ccccc1 | 185 |
| CC(C)(C)CN1C(=O)C(=O)N(c2ccc(F)cc2)C1=S | 165 to 166 |
| O=C(O)c1cc(-n2c(-c3ccccc3)cc3c2Cc2ccccc2-3)ccc1O | 201 to 205 |
| O=C(O)CCCCCSC1=CCCC1=O | 77.5 to 78 |
| Cc1nn(-c2cc(C(=O)O)c(Cl)cc2F)c(=O)n1C(F)F | 132 to 135 |
| COC(=O)NC(=N)C(C)C | 127 to 130 |
| CCOC(=O)c1c(-c2ccc(Cl)s2)ccnc1C(C(=O)OCC)c1cc(OC)cc(OC)n1 (stereo not given) | 127 to 132 |
| COc1cccc(CCN2C(=O)c3c(F)c(F)c(F)c(F)c3C2(O)c2ccc(F)cc2)c1 (stereo not given) | 161 |
| CCN(CC)CCNC(=NC#N)NCCCSc1nccc(NC(N)=NCC(F)(F)F)n1 | 76 to 80 |
| O=C1OCc2c1cc1ccc3c(c1c2-c1ccc(OC(F)(F)F)cc1)OCO3 | 222 to 225 |
| CSc1ccc(-c2c(NN)nc(Cl)nc2-c2ccccc2)cc1 | 272 to 274 |

The next lines start with the values.

| melting point [°C] | Compound |
| --- | --- |
| 67 to 69 | CCCCOCCOc1ccc(-c2ccc(N3CC(C)C(C)C3)c(C=C(C)C(=O)OCC)c2)cc1 (stereo not given) |
| 101 to 103 | COC(=O)c1c(O)c(-c2cccc(C(F)(F)F)c2)nn1C |
| 190 to 195 | CC(=S)NC[C@H]1CN(c2ccc3c(c2)CCCc2cn[nH]c2-3)C(=O)O1 |
| 164 | O=C(O)CNC(=Nc1ccc(C(=O)O)cc1)NCC1CCCCC1 |
| 213 to 214 | O=C1Nc2ccccc2C2=NC(CBr)CN12 (stereo not given) |
| 174 to 175 | COC(=O)c1ccc(Nc2ccc(C(=O)OC)cc2)cc1 |
| 154 to 157 | CN(C)CC#Cc1cc(CN2CCOCC2)cc2c(=O)c(C(=O)NCc3ccc(Cl)cc3)cn(C)c12 |
| 148 | O=C(N[C@@H]1CN2C(=O)N(c3cc(Cl)nc(Cl)c3)C(=O)[C@@]2(Cc2ccc(OC(F)(F)F)cc2)C1)c1ccncc1 |
| 130 to 131 | O=C(O)C(Cc1ccccc1)C(=O)N[C@H](CO)Cc1c[nH]c2ccccc12 (stereo not given in full) |
| 261 to 263 | CN1C(C(=O)Nc2ccccc2)=C(O)c2sc3ccccc3c2S1(=O)=O |
| 107 to 109 | CCOC(=O)C1=C(C)NC(=S)N(C(=O)OCC)C1c1cccc(OC)c1 (stereo not given) |
| 176 to 178 | CC1CCN(C(=O)NCCc2ccc(S(=O)(=O)NC(=O)NC3CCCCC3)cc2)C(=O)C1 (stereo not given) |
| 284 | CC(C)(C#N)c1cc(O)cc2cc(-c3ccc(O)cc3)oc12 |
| 233 to 234 | N#CCc1c[nH]c2ccc(NC(=O)NC3CCCCC3)cc12 |
| 65 to 67 | Cc1ccc(S(=O)(=O)OCCC2(O)CCc3cc(F)ccc3C2C(C)C)cc1 (stereo not given) |
| 118 to 120 | O=C(c1ccc([N+](=O)[O-])cc1)c1c(Cl)cc(O)cc1Cl |
| 195 to 196 | CC1=C(C(=O)OC(C)(C)C)C(c2cccc(Br)c2)C(C(=O)OC(C)(C)C)=C(C)N1 |
| 210 to 211 | O=C(O)C1=Cc2cc(Cl)cc(C#Cc3ccc(Cl)cc3)c2OC1C(F)(F)F (stereo not given) |
| 373 to 377 | CCNC(=O)c1c[nH]c2ncc(-c3nn(C)c4cc(Cl)ccc34)nc12 |
| 153 to 154 | COc1ccc(C2(C#N)CCC(=O)CC2)c2c1OC(C)(C)O2 |
| 124 to 127 | CS(=O)(=O)OCC(C#N)(c1ccc(Cl)cc1)c1ccccc1Cl (stereo not given) |

| melting point [°C] | Compound |
| --- | --- |
| 123 to 125 | CCOC(=O)C1=Cc2cc(OC(F)(F)F)ccc2NC1C(F)(F)F (stereo not given) |
| 258 to 261 | COc1c(N2CCC(=NO)CC2)c(F)cc2c(=O)c(C(=O)O)cn(C3CC3)c12 |
| 176 to 178 | CCc1c(-c2cc(C)c(O)c(C)c2)[nH]c2ccc(OC)cc12 |
| 169 to 171 | CC(C)(C)c1cc(NC(=O)NCCCl)cc(C(C)(C)C)c1O |
| 116 to 118 | CCOC(=O)N1CCC(=C2c3ccc(F)cc3CCc3cccnc32)CC1 |
| 134 to 137 | c1ccc2nc(COc3ccc4[nH]ccc4c3)ccc2c1 |
| 90 to 95 | COc1cc(-c2oc3ccccc3c(=O)c2C(=O)N2CCN(c3ccccn3)CC2)cc(OC)c1OC |
| 120 to 122 | COC(=O)c1cc(C(F)(F)F)[nH]c1-c1ccc(Cl)cc1 |
| 225 to 226 | Cc1ccc(C(=O)Nc2ccc(-n3nc(C(F)(F)F)cc3C(F)(F)F)cc2)cc1 |
| 92 to 95 | Cc1nc(OCC(F)(F)F)c([N+](=O)[O-])c(N2CCN(c3ccc(F)cc3)CC2)n1 |
| 55 to 56 | O=C(CNCc1ccc(OCc2ccccc2)cc1)NCCCOc1ccccc1 |
| 180 | O=C(c1ccccc1)c1cc(-c2ccc(Cl)cc2)c(N2CCOCC2)s1 |
| 159 to 160 | CCCc1[nH]c2cc(C(=O)OC)ccc2c1C(=O)C1CCC1 |
| 140 to 142 | COC1Cc2nc3cc(N)ccc3n2C1 (stereo not given) |
| 134 to 136 | Nc1ccc(F)c(N2C(=O)C3=C(CCCC3)C2=O)c1 |
| 210 to 212 | COC(=O)c1ccc(Cc2cn(C)c3ccc(NC(=O)NC4CCCC4)cc23)c(OC)c1 |
| 164 to 166 | CN1CCN(C2=Nc3cc(Br)ccc3-n3ccc4cccc2c43)CC1 |
| 270 to 272 | CCCC(=O)c1cnc2c(OC)cccc2c1Nc1ccc(O)cc1 |
| 154 to 155 | CC(=NOCc1ccc(Cl)s1)C1=C(O)CC(C2CCCSC2)CC1=O (stereo not given) |
| 133 to 135 | N#CCN1CCN(c2cccccc2=O)CC1 |

— a melting point compilation (Tetko et al.; mined from patent text by program, amines drawn as free bases though some values may be those of a salt)
